The term EC50 denotes the concentration giving half of the maximal effect.

The structures appear in SMILES notation.

For this assay, the system named is LXRα and/or LXRβ. Description: LXR/LXRE co-transfection assay (luciferase reporter, CV-1 cells). The note with it: IC50 or EC50 for LXR (LXRα and/or LXRβ, not distinguished), tested as described in Example 109, CV-1 cells. The assay is classed as cell-based, human. The text has this:
To measure the ability of compounds to activate or inhibit the transcriptional activity of LXR in a cell based assay, the co-transfection assay was used. It has been shown that LXR functions as a heterodimer with RXR. For the co-transfection assay; expression plasmids for LXR and RXR are introduced via transient transfection into mammalian cells along with a luciferase reporter plasmid that contains one copy of a DNA sequence that is bound by LXR-RXR heterodimers (LXRE; Willy, P. ad. 1995). Treatment of transfected cells with an LXR agonist increases the transcriptional activity of LXR, which is measured by an increase in luciferase activity.
CV-1 African Green Monkey Kidney Cells Co-transfection expression plasmids, comprising full-length LXRα (pCMX-h LXRα, LXRβ (pCMX-hLXRβ), or RXRα (pCMX-RXR), reporter plasmid (LXREx1-Tk-Luciferase), and control (pCMX-Galactosidase expression vector) (Willey et al. Genes & Development 91033-1045 (1995)). Transfection reagent such as FuGENE6 (Roche). 1× Cell lysis buffer (1% Triton X 100 (IT Baker X200-07), 10% Glycerol (JT Baker M778-07), 5 mM Ditriotreitol (Quantum Bioprobe DTT03; add fresh before lysing), 1 mM EGTA (Ethylene Glycol-bis(B-Amino ethyl ether)-N,N,N′,N′-Tetracetic Acid) (Sigma E-4378), 25 mM Tricine (ICN 807420) pH 7.8) 1× Luciferase assay buffer (pH at 7.8) (0.73 mM ATP, 22.3 mM Tricine, 0.11 mM EDTA, 33.3 mM DTT) 1× Luciferrin/CoA (11 mM Luciferin, 3.05 mM Coenzyme A, 10 mM HEPES) Preparation of Screening Reagents
CV-1 cells were prepared 24 hours prior to the experiment by plating them into T-175 flasks or 500 cm^2 dishes in order to achieve 70-80% confluency on the day of the transfection. The number of cells to be transfected was determined by the number of plates to be screened. each 384 well plate requires 1.92×10^6 cells or 5000 cells per well. DNA Transfection Reagent was prepared by mixing the required plasmid DNAs with a cationic lipid transfection reagent FuGENE6 (Roche) by following the instructions provided with the reagents. Optimal DNA amounts were determined empirically per cell line and size of vessel to be transfected. 10-12 mL of media was added to the DNA Transfection Reagent and this mixture was added to the cells after aspirating media from the T175 cm^2 flask. Cells were then incubated at least 5 hours at 37° C. to prepare screening cells.
Luciferase assay reagent was prepared by combining before use (per 10 mL): […], 0.54 mL of 1× Luciferrin/CoA; 0.54 mL of 0.2 M Magnesium sulfate
Assay plates were prepared by dispensing 5 μL of compound per well of a 384 well plate to achieve final compound concentration of 10 μM and no more than 1% DMSO. Media was removed from the screening cells, the cells trypsinized, harvested cells by centrifugation, counted, and plated at a density of approximately 5000 cells per well in the 384 well assay plate prepared above in a volume of about 45 μL. Assay plates containing both compounds and screening cells (50 μL in total volume) were incubated for 20 hours at 37° C.
After incubation with compounds, media was removed from the cells and lysis buffer (30 μL/well) added. After 30 minutes at ambient temperature, luciferase assay buffer (30 μL/well) was added and the assay plates read on a luminometer (PE Biosystems Northstar reader with on-board injectors, or equivalent). Plates were read immediately after addition of luciferase assay buffer.
The LXR/LXRE co-transfection assay can be used to establish the EC50/IC50 values for potency and percent activity or inhibition for efficacy. Efficacy defines the activity of a compound relative to a high control ((N-(3-((4-fluorophenyl)-(naphthalene-2-sulfonyl)amino)propyl)-2,2-dimethylpropionamide)) or a low control (DMSO/vehicle). The dose response curves are generated from an 8 point curve with concentrations differing by ½ LOG units. each point represents the average of 4 wells of data from a 384 well plate. […]
In general terms: In a reporter assay the amount or activity of a reporter protein is the signal.
For the compound `CO/N=C(\C)c1cc(-c2ccc(-c3cccc(S(C)(=O)=O)c3)s2)n(-c2ccccc2Cl)n1` [Example 1177, (1E)-1-[1-(2-chlorophenyl)-5-{5-[3-(methylsulfonyl)phenyl]-2-thienyl}-1H-pyrazol-3-yl]ethanone O-methyloxime], the EC50 is < 1000 nM.
Then `CC(C)(O)c1cc(-c2ccc(-c3cccc(S(C)(=O)=O)c3)s2)n(-c2ccc(F)cc2)n1` [Example 1263, 2-[1-(4-fluorophenyl)-5-{5-[3-(methylsulfonyl)phenyl]-2-thienyl}-1H-pyrazol-3-yl]propan-2-ol], with 1000 to 10000 nM; and `CC(C)(O)c1cc(-c2cccc(Cl)c2Cl)n(-c2ccc(-c3cccc(S(C)(=O)=O)c3)cc2)n1` [Example 106, 2-(5-(2,3-dichlorophenyl)-1-(3′-(methylsulfonyl)biphenyl-4-yl)-1H-pyrazol-3-yl)propan-2-ol], with 1000 to 10000 nM; and `Cc1cc(-n2nc(C(C)(C)O)cc2-c2c(Cl)cccc2Cl)ccc1-c1cccc(S(C)(=O)=O)c1` [Example 1417, 2-(5-(2,6-dichlorophenyl)-1-(2-methyl-3′-(methylsulfonyl)biphenyl-4-yl)-1H-pyrazol-3-yl)propan-2-ol], with 1000 to 10000 nM.
In the case of `CC(C)(O)c1cc(-c2ccc(-c3ccc4[nH]ccc4c3)cc2)n(-c2ccccc2Cl)n1` [Example 1283, 2-{1-(2-chlorophenyl)-5-[4-(1H-indol-5-yl)phenyl]-1H-pyrazol-3-yl}propan-2-ol], the EC50 fell in the range of 1000 to 10000 nM.
Take `CS(=O)(=O)c1cccc(-c2ccc(-n3nc(C(F)(F)F)cc3-c3ccccc3C(F)(F)F)nc2)c1` [Example 1231, 5-[3-(methylsulfonyl)phenyl]-2-{3-(trifluoromethyl)-5-[2-(trifluoromethyl)phenyl]-1H-pyrazol-1-yl}pyridine]: the EC50 was < 1000 nM.
Take `CC(C)(O)c1cc(-c2ccc(-c3cccc(S(C)(=O)=O)c3)s2)n(-c2cccnc2)n1` [Example 1346, 2-(5-{5-[3-(methylsulfonyl)phenyl]-2-thienyl}-1-pyridin-3-yl-1H-pyrazol-3-yl)propan-2-ol]: the EC50 is < 1000 nM.
Then `CC(C)(O)c1ccccc1-n1nc(C(F)(F)F)cc1-c1ccc(-c2cccc(S(C)(=O)=O)c2)s1` [Example 1229], with < 1000 nM.
Compound `CC(C)(O)c1cc(-c2ccc(-c3cccc(S(C)(=O)=O)c3)s2)n(-c2cccc(C(F)(F)F)c2O)n1` [Example 1338, 2-[3-(1-hydroxy-1-methylethyl)-5-{5-[3-(methylsulfonyl)phenyl]-2-thienyl}-1H-pyrazol-1-yl]-6-(trifluoromethyl)phenol] showed an EC50 of 1000 to 10000 nM.
`CC(C)(O)c1cc(-c2ccc(-c3cccc(S(C)(=O)=O)c3)s2)n(-c2ccccc2Br)n1` [Example 1320, 2-[1-(2-bromophenyl)-5-{5-[3-(methylsulfonyl)phenyl]-2-thienyl}-1H-pyrazol-3-yl]propan-2-ol]: the EC50 is < 1000 nM.
As for `Cn1c(-c2cccc(S(C)(=O)=O)c2)ccc1-c1cc(C(C)(C)O)nn1-c1c(Cl)cccc1Cl` [Example 1393, 2-(1-(2,6-dichlorophenyl)-5-(1-methyl-5-(3-(methylsulfonyl)phenyl)-1H-pyrrol-2-yl)-1H-pyrazole-3-yl)propan-2-ol], the figure is 1000 to 10000 nM.
Then `CC(C)(O)c1cc(-c2cc(C(F)(F)F)nn2-c2ccccc2Cl)ccc1-c1cccc(S(C)(=O)=O)c1` [Example 1207, 2-{4-[1-(2-chlorophenyl)-3-(trifluoromethyl)-1H-pyrazol-5-yl]-3′-(methylsulfonyl)biphenyl-2-yl}propan-2-ol], with 1000 to 10000 nM; and `CC(C)(O)c1cc(-c2ccc(-c3cccc(S(C)(=O)=O)c3)s2)n(-c2cc(F)ccc2F)n1` [Example 1322, 2-[1-(2,5-difluorophenyl)-5-{5-[3-(methylsulfonyl)phenyl]-2-thienyl}-1H-pyrazol-3-yl]propan-2-ol], with 1000 to 10000 nM.
In turn, `CC(C)(O)c1cc(-c2ccc(-c3ccc(C(F)(F)F)cc3Cl)cc2)n(-c2ccccc2Cl)n1` [Example 1288, 2-{1-(2-chlorophenyl)-5-[2′-chloro-4′-(trifluoromethyl)biphenyl-4-yl]-1H-pyrazol-3-yl}propan-2-ol] registered an EC50 of 1000 to 10000 nM.
Then `Cc1c(Cl)cccc1-n1nc(C(C)(C)O)cc1-c1ccc(-c2cccc(S(C)(=O)=O)c2)s1` [Example 1340, 2-[1-(3-chloro-2-methylphenyl)-5-{5-[3-(methylsulfonyl)phenyl]-2-thienyl}-1H-pyrazol-3-yl]propan-2-ol], with < 1000 nM; and `CS(=O)(=O)c1cc(-c2ccc(-c3cc(C(F)(F)F)nn3-c3cc(Cl)ccc3Cl)s2)ccc1OCCc1nnn[nH]1` [Example 1260, 5-(2-{[4-{5-[1-(2,5-dichlorophenyl)-3-(trifluoromethyl)-1H-pyrazol-5-yl]-2-thienyl}-2-(methylsulfonyl)phenyl]oxy}ethyl)-1H-tetrazole], with 1000 to 10000 nM; and `CC(C)(O)c1cccc(-c2ccc(-c3cc(C(F)(F)F)nn3-c3ccccc3Cl)cc2)c1` [Example 1221, 2-{4′-[1-(2-chlorophenyl)-3-(trifluoromethyl)-1H-pyrazol-5-yl]biphenyl-3-yl}propan-2-ol], with < 1000 nM.
Take `CC(C)(O)c1nn(-c2ccccc2F)c(-c2ccc(-c3cccc(S(C)(=O)=O)c3)s2)c1Cl` [Example 23]: the EC50 is < 1000 nM.
Take `CC(=O)c1cc(-c2ccc(-c3cccc(S(=O)(=O)C(C)C)c3)s2)n(-c2ncccc2C(F)(F)F)n1` [Example 1183, 1-{5-(5-{3-[(1-methylethyl)sulfonyl)phenyl}-2-thienyl)-1-[3-(trifluoromethyl)pyridin-2-yl]-1H-pyrazol-3-yl}ethanone]: the EC50 was < 1000 nM.
For the compound `CC(C)(O)c1cc(-c2ccc(-c3cccc(S(N)(=O)=O)c3)s2)n(-c2cc(Cl)ccc2Cl)n1` [Example 1214, 3-{5-[1-(2,5-dichlorophenyl)-3-(1-hydroxy-1-methylethyl)-1H-pyrazol-5-yl]-2-thienyl}benzenesulfonamide], the EC50 lay in the range of 1000 to 10000 nM.
As for `COC(=O)c1cc(-c2ccc(-c3cccc(S(C)(=O)=O)c3)cn2)n(-c2ccccc2Cl)n1` [Example 118, methyl 1-(2-chlorophenyl)-5-(5-(3-(methylsulfonyl)phenyl)pyridin-2-yl)-1H-pyrazole-3-carboxylate], the figure is < 1000 nM; as for `Cc1c(F)cccc1-n1nc(C(C)(C)O)cc1-c1ccc(-c2cccc(S(C)(=O)=O)c2)s1` [Example 1361, 2-[1-(3-fluoro-2-methylphenyl)-5-{5-[3-(methylsulfonyl)phenyl]-2-thienyl}-1H-pyrazol-3-yl]propan-2-ol], < 1000 nM; as for `CS(=O)(=O)c1cccc(-c2ccc(-c3cc(Cc4nnn[nH]4)nn3-c3ccccc3Cl)s2)c1` [Example 1136, 5-{[1-(2-chlorophenyl)-5-{5-[3-(methylsulfonyl)phenyl]-2-thienyl}-1H-pyrazol-3-yl]methyl}-1H-tetrazole], 1000 to 10000 nM.
In turn, `CC(C)(O)c1nn(-c2ccccc2Cl)c(-c2ccc(-c3cccc(S(C)(=O)=O)c3)nc2)c1Cl` [Example 132, 2-(4-chloro-1-(2-chlorophenyl)-5-(6-(3-(methylsulfonyl)phenyl)pyridin-3-yl)-1H-pyrazol-3-yl)propan-2-ol] yielded an EC50 of 1000 to 10000 nM.
For the compound `CC(=O)c1cc(-c2ccc(-c3cccc(S(C)(=O)=O)c3)s2)n(-c2cc(Cl)ccc2Oc2ccccc2)n1` [Example 1213, 1-(1-[5-chloro-2-(phenyloxy)phenyl]-5-{5-[3-(methylsulfonyl)phenyl]-2-thienyl}-1H-pyrazol-3-yl)ethanone], the concentration giving a half-maximal response (EC50) was < 1000 nM.

Values taken from patent US8703805B2 (Exelixis Patent Company LLC, priority 2005, dated 2014).
